From ChEMBL document CHEMBL5032517, “Synthesis of the analogs of plocabulin and their preliminary structure-activity relationship study” (Bioorg Med Chem Lett, 2021)

What was measured:
[1] = test system: HepG2; test: Antiproliferative activity against human HepG2 cells assessed as inhibition of cell growth by first round CCK8 assay; assay type: functional, cell-based
[2] = test system: A549; test: Antiproliferative activity against human A549 cells assessed as inhibition of cell growth by first round CCK8 assay; assay type: functional, cell-based
[3] = test system: HepG2; test: Antiproliferative activity against human HepG2 cells assessed as inhibition of cell growth by secondary round CCK8 assay; assay type: functional, cell-based
[4] = test system: HT-29; test: Antiproliferative activity against human HT-29 cells assessed as inhibition of cell growth by secondary round CCK8 assay
[5] = test system: HT-29; test: Antiproliferative activity against human HT-29 cells assessed as inhibition of cell growth by first round CCK8 assay; assay type: functional, cell-based
[6] = test system: A549; test: Antiproliferative activity against human A549 cells assessed as inhibition of cell growth by secondary round CCK8 assay; assay type: functional, cell-based
[7] = molecular target: Tubulin; test: Inhibition of tubulin polymerization (unknown origin); assay type: protein-complex assay, Homo sapiens

Structure (SMILES)	IC50 [1] [nM]	IC50 [2] [nM]	IC50 [3] [nM]	IC50 [4] [nM]	IC50 [5] [nM]	IC50 [6] [nM]	IC50 [7] [nM]
C/C=C\CC(C/C=C\NC(=O)[C@@H](NC(=O)\C=C/C=C\C(C)=C\[C@H](C)[C@@H]1CC=C(OC)C(=O)O1)C(C)(C)C)OC(N)=O (some centres not stated)	1.64	0.72	0.36	< 0.2	0.27	< 0.2	3100
COC1=CC[C@@H]([C@@H](C)/C=C(C)/C=C\C=C/C(=O)N[C@H](C(=O)N/C=C\CCOC(N)=O)C(C)(C)C)OC1=O	5.8	2.4	–	–	1.1	–	–
COC1=CC[C@@H]([C@@H](C)/C=C(C)/C=C\C=C/C(=O)N[C@H](C(=O)N/C=C(/C)CCOC(N)=O)C(C)(C)C)OC1=O	–	–	–	–	–	–	16000
CC(=O)O[C@H]1C(=O)[C@@]2(C)[C@H]([C@H](OC(=O)c3ccccc3)[C@]3(O)C[C@H](OC(=O)[C@H](O)[C@@H](NC(=O)c4ccccc4)c4ccccc4)C(C)=C1C3(C)C)[C@]1(OC(C)=O)CO[C@@H]1C[C@@H]2O [PACLITAXEL]	–	–	10.1	–	–	–	–
